Values after ≈ are worked out from the molar mass of the structure shown.

The test system of test [1] is NMDA (N-methyl-D-aspartate) receptors. Conditions: in words, literature; cited from earlier work.
Test [2] concerns kainate receptors. Conditions: in words, literature; cited from earlier work.
Test [3] has as its system quisqualate receptors. Conditions: in words, literature; cited from earlier work.
Test [4] has as its target quisqualic acid stimulated 3H-GABA efflux from cultured cortical neurones (quisqualate receptors). Briefly: Release experiments: antagonism of quisqualic acid stimulated 3H-GABA efflux from cultured cortical neurones. Conditions: Table 1 Ki; test not stated. The test is classed as cell-based, mouse. On the procedure: The pharmacological properties of the compounds of the present invention can be illustrated by determining their capability for displacing radioactively labelled 2-amino-3-hydroxy-5-methyl-4-isoxazolepropionic acid (AMPA) from the quisqualate type receptors. […]
Cerebral cortices of 16 day old mouse embryos are chopped in 0.4×0.4 mm cubes. The tissue is dissociated by mild trypsinization (0.1% (wt/vol) trypsin, 37° C., 15 min) and subsequently inoculated into poly-L-lysine-coated 3 cm Petri dishes containing a slightly modified DMEM (24.5 mM KCl, 30 mM glucose) supplemented with p-aminobenzoate (7 μM), insulin (100 mU/1) and 10% (vol/vol) horse serum. Cells are maintained in culture for 5-7 days with the addition of the antimitotic agent cytosine arbinoside (40 μM) from day 2 in vitro to prevent glial proliferation. For further details and references see Drejer et al. (Exp. Brain Res. 47, 259 (1982)).
Release experiments are performed using the model described by Drejer et al. (Life Sci. 38, 2077 (1986)). Cerebral cortex interneurons cultured in Petri dishes (30 mm) are added 100 μM gamma-vinyl-GABA one hour before the experiment in order to inhibit degradation of GABA in the neurons. 30 min. before the experiment 5 μCi ^3 H-GABA is added to each culture and after this preloading period the cell monolayer at the bottom of the dish is covered with a piece of nylon mesh to protect the cells against mechanical damage and to facilitate dispersion of medium over the cell layer. The preloading medium is removed and the Petri dishes are placed in a superfusion system. This system consists of a peristaltic pump continuously delivering thermostated 37° C. superfusion medium (HEPES buffered saline (HBS): 10 mM HEPES, 135 mM NaCl, 5 mM KCl, 0.6 mM MGSO4, 1.0 mM CaCl2 and 6 mM D-glucose; pH 7.4) from a reservoir to the top of the slightly tilted Petri dish. The medium is continuously collected from the lower part of the dish and delivered to a fraction collector. Initially, the cells are superfused with HBS for 15 min. (flow rate 2 ml/min.). The cells are stimulated for 30 sec. every 4 min. by changing the superfusion medium from HBS to a corresponding medium containing quisqualate and test compound. The release of ^3 H-GABA in the presence of quisqualate (stimulated release in cpm) are corrected for the mean basal release (Cpm) before and after the stimulation.

For test [5], the target named is quisqualate type receptors. Briefly: 3H-AMPA binding (displacement of 3H-AMPA from quisqualate type receptors, rat cerebral cortical membrane homogenate). Conditions: concentration causing 50% displacement of specific 3H-AMPA binding; Hill analysis; pH 7.1, 0° C., 30 min. On the procedure:
The pharmacological properties of the compounds of the present invention can be illustrated by determining their capability for displacing radioactively labelled 2-amino-3-hydroxy-5-methyl-4-isoxazolepropionic acid (AMPA) from the quisqualate type receptors.
The displacement activity of the compounds may be shown by determining the IC50 value which represents the concentration (μg/ml) which causes a displacement of 50% of the specific binding of ^3 H-AMPA.
500 μl of thawed rat cerebral cortical membrane homogenate in Tris-HCl (30 mM), CaCl2 (2.5 mM) and KSCN (100 mM) pH 7.1 were incubated at 0° C. for 30 min. with 25 μl ^3 H-AMPA (5 nM final concentration) and the test compound and buffer. Nonspecific binding was determined by incubation with L-glutamic acid (600 μM final concentration). The binding reaction was terminated by adding 5 ml of ice-cold buffer followed by filtration through Whatman GF/C glass fibre filters and 2×5 ml wash with ice-cold buffer. Bound radioactivity was measured by scintillation counting. IC50 was determined by Hill analysis of at least four concentrations of test compound.

With `O=C(O)[C@@H]1CCCN[C@H]1C(=O)O` (relative stereo) [trans-2,3-PDA, trans-2,3-piperidine dicarboxylic acid], the “agonist or antagonist activity on NMDA receptors” value in test [1] is “strong to moderate agonist activity”. In the case of `NC(CCC(=O)NCC(=O)O)C(=O)O` (stereo not drawn) [3-glutamyl-glycine], the “antagonism / inhibition of binding at kainate receptors” value in test [2] was “some selectivity for kainate receptors”.

`Cc1onc(O)c1CC(N)C(=O)O` (stereo not drawn) [AMPA, 2-amino-3-hydroxy-5-methyl-4-isoxazolepropionic acid]: in test [3], the “agonist or antagonist activity on quisqualate receptors” value is “potent agonists”. Regarding `N[C@H](CCCC(=O)O)C(=O)O` [D-2-amino-adipic acid], the “agonist or antagonist activity on NMDA receptors” value in test [1] is “moderate antagonist activity”. In the case of `N[C@H](CCCCCP(=O)(O)O)C(=O)O` [D-APH, 2-amino-7-phosphonoheptanoic acid], the “agonist or antagonist activity on NMDA receptors” value in test [1] was “most potent and selective antagonists”. For the molecule `N[C@H](CCCP(=O)(O)O)C(=O)O` [D-APV, 2-amino-5-phosphono-valeric acid], the “agonist or antagonist activity on NMDA receptors” value in test [1] is “most potent and selective antagonists”. With `N[C@H](CCC(=O)O)C(=O)O` [D-glutamic acid], in test [1], the “agonist or antagonist activity on NMDA receptors” value was “strong to moderate agonist activity”. The molecule `N#Cc1cc2c(cc1C(F)(F)F)[nH]c(=O)c(=O)n2O` [Example 6 d, 7-Cyano-1-hydroxy-6-trifluoromethylquinoxaline-2,3(1H,4H)-dione] gave a Ki in test [4] of 0.08 mg/L (≈ 0.295 µM). In test [5], the IC50 was determined as 0.15 mg/L (≈ 0.553 µM). The like results for `O=c1[nH]c2cc(C(F)(F)F)c(Cl)cc2n(O)c1=O` [Example 30 d, 7-chloro-1-hydroxy-6-trifluoromethylquinoxaline-2,3(1H,4H)-dione] were, in that order, 0.12 mg/L (≈ 0.428 µM) and 0.37 mg/L (≈ 1.32 µM). For the molecule `NS(=O)(=O)c1cc2c(cc1C(F)(F)F)[nH]c(=O)c(=O)n2O` [Example 33 d, 1-Hydroxy-7-sulfamoyl-6-trifluoromethylquinoxaline-2,3(1H,4H)-dione], the Ki in test [4] came out at 0.02 mg/L (≈ 0.0615 µM). The IC50 in test [5] came to 0.14 mg/L (≈ 0.43 µM). Taken in the same sequence, the figures for `CC(=O)c1cc2c(cc1C#N)[nH]c(=O)c(=O)n2O` [Example 34 e, 7-Acetyl-6-cyano-1-hydroxyquinoxaline-2,3(1H,4H)-dione] were 0.27 mg/L (≈ 1.1 µM) and 0.09 mg/L (≈ 0.367 µM). Turning to `CCOC(=O)CC[C@H](N)C(=O)OCC` [GDEE, Glutamic acid diethyl ester], the “agonist or antagonist activity on quisqualate receptors” value in test [3] is “selective but very weak antagonist”. Regarding `N[C@H](C(=O)O)c1cc(=O)[nH]o1` [Ibotenic acid], the “agonist or antagonist activity on NMDA receptors” value in test [1] is given as “strong to moderate agonist activity”. For the molecule `N[C@@H](CCC(=O)O)C(=O)O` [L-glutamic acid], the “agonist or antagonist activity on quisqualate receptors” value in test [3] is recorded as “potent agonists”. Take `N[C@@H](CCS(=O)(=O)O)C(=O)O` [L-homocysteic acid]: in test [1], the “agonist or antagonist activity on NMDA receptors” value is listed as “strong to moderate agonist activity”. For `N[C@H](CCC[C@H](N)C(=O)O)C(=O)O` [diaminopimelic acid], the “agonist or antagonist activity on NMDA receptors” value in test [1] is reported as “moderate antagonist activity”. As to `N[C@@H](Cn1oc(=O)[nH]c1=O)C(=O)O` [quisqualic acid], in test [3], the “agonist or antagonist activity on quisqualate receptors” value was “activated selectively”.
